Laboratory results as given in patent US5227490A, “Fibrinogen receptor antagonists” (Merck & Co., Inc., priority 1992, dated 1993).

System: human platelets
Experiment: ADP-stimulated platelet aggregation assay (gel-filtered human platelets)
Type: cell-based
Conditions: fibrinogen, CaCl2 1 mM, ADP-initiated, initial rate of increase of light transmittance, read-out: IC50 (inhibition of platelet aggregation)
Excerpt: In addition to the following preparative procedures, several examples of in-vitro bioactivity of compounds within the scope of the present invention are indicated. To illustrate, one test which is used to evaluate fibrinogen receptor antagonist activity is based on evaluation of inhibition of ADP-stimulated platelets. Aggregation requires that fibrinogen bind to and occupy the platelet fibrinogen receptor site. Inhibitors of fibrinogen binding inhibit aggregation. In the ADP-stimulated platelet aggregation assay used to determine inhibition associated with the compounds claimed in the instant invention, human platelets are isolated from fresh blood, collected into acid citrate/dextrose by differential centrifugation followed by gel filtration on Sepharose 2 B in divalent ion-free Tyrode's buffer (pH 7.4) containing 2% bovine serum albumin.
Platelet aggregation is measured at 37° C. in a Chronolog aggregometer. The reaction mixture contains gel-filtered human platelets (2×10^8 per ml), fibrinogen (100 micrograms per ml (ug/ml)), Ca^2+ (1 mM), and the compound to be tested. The aggregation is initiated by adding 10 μM ADP 1 minute after the other components are added. The reaction is then allowed to proceed for at least 2 minutes. The extent of inhibition of aggregation is expressed as the percentage of the rate of aggregation observed in the absence of inhibitor. The IC50 is the dose of a particular compound inhibiting aggregation by 50% relative to a control lacking the compound.
The test procedures employed to measure the anti-platelet aggregating activity of the compounds of the present invention are described below.
Blood was drawn into 0.1 volumes of acid citrate-dextrose (85 mM sodium citrate, 64 mM citric acid, 110 mM dextrose) by venipuncture from normal human volunteers. Platelet-rich plasma was prepared by centrifugation at 400× g for 12 minutes. PGEl (5 mg/ml) was added and platelets were collected by centrifugation at 800× g for 12 minutes. The platelet pellet was resuspended into human platelet buffer (140 mM NaCl, 7.9 mM KCl, 3.3 mM Na2 HPO4, 6 mM HEPES, 2% bovine serum albumin, 0.1% dextrose, pH 7.2) and filtered over Sepharose 2B that was previously equilibrated in human platelet buffer. Human fibrinogen ([…]) and Ca Cl2 (1 mM) were added and aggregation was initiated by the addition of […]. Aggregation was monitored by the initial rate of increase of light transmittance.

Compound | IC50
O=C(NCC(Cc1ccc(OCCCCC2CCNCC2)cc1)C(=O)O)c1ccccc1 (centres unmarked) [CH2 NHC(O)Ph, 2-[4-(4-Piperidin-4-yl)butyloxy]phenylmethyl-3-(benzoylamino)propanoic acid] | 3.1 µM
O=C(O)C(CNCc1ccccc1)Cc1ccc(OCCCCC2CCNCC2)cc1 (centres unmarked) [CH2 NHCH2 Ph, 2-[4-(4-Piperidin-4-yl)butyloxy]phenylmethyl-3-(benzylamino)propanoic acid] | 18 µM
CCCCS(=O)(=O)NCC(Cc1ccc(OCCCCC2CCNCC2)cc1)C(=O)O (centres unmarked) [CH2 NHSO2 C4 H9, 2-[4-(4-Piperindin-4-yl)butyloxy]phenylmethyl-3-(n-butylsulfonylamino)propanoic acid] | 2.9 µM
O=C(O)C(Cc1ccccc1)Cc1ccc(OCCCCC2CCNCC2)cc1 (centres unmarked) [CH2 Ph, 3-[4-(4-Piperidin-4-yl)butyloxyphenyl]-2-(benzyl)propanoic acid] | 115 µM
CCCCS(=O)(=O)CC(Cc1ccc(OCCCCC2CCNCC2)cc1)C(=O)O (centres unmarked) [CH2 SO2 C4 H9, 2-[4-(4-Piperidin-4-yl)butyloxy]phenylmethyl-3-(n-butylsulfonyl)propanoic acid] | 0.65 µM
O=C(O)C(Cc1ccc(OCCCCC2CCNCC2)cc1)CS(=O)(=O)Cc1ccccc1 (centres unmarked) [CH2 SO2 CH2 Ph, 2-[4-(4-N-piperidin-4-ylbutyloxy]phenylmethyl]-3-(benzylsulfonyl)propanoic acid] | 1.6 µM
COC(=O)C(Cc1ccc(OCCCCC2CCNCC2)cc1)C(=O)O (centres unmarked) [CO2 CH3, 2-(Carbomethoxy)-3-[4-(4-piperidin-4-yl)butyloxyphenyl]propanoic acid] | 5.8 µM
O=C(O)C(Cc1ccc(OCCCCC2CCNCC2)cc1)C(=O)O [CO2 H, 2-Carboxy-3-[4-(4-Piperidin-4-yl)butyloxyphenyl]propanoic acid] | 3.2 µM
O=C(O)C(O)Cc1ccc(OCCCCC2CCNCC2)cc1 (centres unmarked) [OH, 2-Hydroxy-3-[4-(4-piperidin-4-yl)butyloxyphenyl]propanoic acid] | 8.6 µM

System: gpIIb/IIIa complex
Experiment: not given
Conditions: snake venom polypeptides; cited from earlier work

Compound | affinity for the gpIIb/IIIa complex
Echistatin | high affinity

System: fibronectin and vitronectin
Experiment: not given
Conditions: cited from earlier work

Compound | activity of the tri-peptide
arginine-glycine-aspartic acid [Arg-Gly-Asp] | low activity
